Source: patent publication US8029770B2 (Rutgers, The State University, priority 2003, dated 2011)
“Also recorded” adds a separate entry of the source. Where two headings read alike, the source gives them in different places. Marks after values point to notes of the source that are not given here.

How the values were obtained:
[1] = test system: apoptotic sunburn cells in the epidermis of SKH-1 mice; assay: UVB-induced apoptotic sunburn cells in the epidermis of SKH-1 mice after topical application; type: in vivo, mouse; settings: for Percent Apoptotic Sunburn Cells, Non-UVB Treated: no UVB
Protocol: Chemicals and Animals. […] Female SKH-1 hairless mice (6 to 7 weeks old) were purchased from the Charles River Breeding Laboratories, and the animals were kept in an animal facility for at least one week before use at 7 to 8 weeks of age. Mice were given water and PURINA® Laboratory CHOW® 5001 diet from Ralston-Purina (St. […] For the analysis conducted herein, 5 mice were used per group. Treatment of Mice with UVB. […] The radiation was further calibrated with a model IL-1700 research radiometer/photometer (International Light, Newburyport, Mass.). Measurement of apoptotic sunburn cells. Identification of apoptoic sunburn cells was based morphologically on cell shrinkage and nuclear condensation due to fragmentation of the cells. […] Six hours after UVB, the animals were sacrificed and apoptotic sunburn cells in the epidermis were determined morphologically. […] Six hours after UVB, the animals were sacrificed and apoptotic sunburn cells in the epidermis were determined morphologically. […] Acetone Formulation. […] Six hours after UVB, the animals were sacrificed and apoptotic sunburn cells in the epidermis were determined morphologically. […] […] Formulations. […] Six hours after UVB the animals were sacrificed and apoptotic sunburn cells in the epidermis were determined morphologically. […] Six hours after UVB the animals were sacrificed and apoptotic sunburn cells in the epidermis were determined morphologically.

[2] = Weight of mouse during topical treatment of UVB-pretreated high risk SKH-1 mice; type: in vivo
Protocol: Female SKH-1 mice were treated with 30 mJ/cm^2 of UVB twice a week for 20 weeks.

[3] = test system: UVB-induced skin lesions in SKH-1 mice; assay: Prevention of UVB-induced skin (sunburn) lesions, sunscreen effect; type: in vivo, mouse; settings: 4.8% caffeine or 8.0% caffeine sodium benzoate (24 μmoles) in 100 mg DERMABASE 30 minutes before UVB 180 mJ/cm^2 on two consecutive days (FIG. 2)
Protocol: The areas (mm^2) and the intensity of red color in UVB-induced skin lesion were estimated semi-quantitatively 5 days after first UVB treatment. The lesion index were calculated as the lesion area multiplied by the arbitrary intensity: 0, no lesion; 1 barely detectable red lesion; 2 moderate red lesion, and 3, bright red lesion.
Outdoor occupational human exposure to UVB or a sunbathing exposure in the summer has been reported to range from 50-100 mJ/cm^2 per day (Larko, et al. (1983) Clin. Exp. Dermatol. 8:279-285; Diffey (1991) Phys. Med. Biol. 36:299-328).

[4] = test system: cyclin B1; assay: Epidermal cyclin B1 in UVB-treated mice, western blot and immunohistochemistry; type: in vivo, mouse
[5] = test system: phospho-Chk2 (Ser387); assay: Epidermal phospho-Chk2 (Ser387) in UVB-treated mice, western blot; type: in vivo, mouse; settings: topical immediately after UVB 30 mJ/cm2; 6 hours
[6] = test system: UVB-induced skin tumors in high risk SKH-1 mice

## Cn1c(=O)c2c(ncn2C)n(C)c1=O.O=C([O-])c1ccccc1.[Na+] [Caffeine Sodium Benzoate, caffeine sodium benzoate]
[1]; 6.2 μmole (each) in 100 μL acetone:water (9:1) immediately after UVB 30 mJ/cm^2 and at 30 and 120 min, 6 h, mean ± S.E.
  Percent Sunburn Cells, UVB: 1.10 ± 0.10%
[1]; 6.2 μmole in 100 μL acetone right after UVB 30 mJ/cm^2 and at 30 and 120 min, 6 h after UVB, mean ± S.E.
  Percent Apoptotic Sunburn Cells: 1.089 ± 0.080^a %
[1]; 100 mg formulation (2.4% caffeine or 4.0% caffeine sodium benzoate, 12.4 μmole, in DERMABASE; or commercial product) immediately after UVB 30 mJ/cm^2, 6 h
  Percent Sunburn Cells, UVB: 2.33 ± 0.36^a %
[1]; 1.0% CSB in 100 mg DERMABASE immediately after UVB 30 mJ/cm^2, 6 h
  Percent Sunburn Cells, UVB: 0.74 ± 0.20^a %
[1]; 2.0% CSB in 100 mg DERMABASE immediately after UVB 30 mJ/cm^2, 6 h
  Percent Sunburn Cells, UVB: 0.99 ± 0.20^a %
[1]; 4.0% CSB in 100 mg DERMABASE immediately after UVB 30 mJ/cm^2, 6 h
  Percent Sunburn Cells, UVB: 1.22 ± 0.19^a %
[1]; 6.0% CSB in 100 mg DERMABASE immediately after UVB 30 mJ/cm^2, 6 h
  Percent Sunburn Cells, UVB: 1.67 ± 0.31^a %
[1]; 8.0% CSB in 100 mg DERMABASE immediately after UVB 30 mJ/cm^2, 6 h
  Percent Sunburn Cells, UVB: 1.75 ± 0.32^a %
[1]; DERMABASE vehicle, equimolar amounts (Table 4)
  enhancement of UVB-induced apoptosis in the epidermis, applied in DERMABASE: to a greater extent than equimolar amounts of caffeine
[1]; Exp-1, 6.2 μmole in acetone:water (9:1) x3 after UVB 30 mJ/cm^2, 6 h
  Percent Apoptotic Sunburn Cells: 1.09 ± 0.08%
[1]; Exp-2, 3.1 μmole in acetone:water (9:1) x3 after UVB 30 mJ/cm^2, 6 h
  Percent Apoptotic Sunburn Cells: 0.45 ± 0.07%
[1]; Exp-2, 3.1 μmole
  Percent Apoptotic Sunburn Cells, Non-UVB Treated: 0.02 ± 0.01%
[1]; Exp-2, 6.2 μmole in acetone:water (9:1) x3 after UVB 30 mJ/cm^2, 6 h
  Percent Apoptotic Sunburn Cells: 0.68 ± 0.06%
[1]; Exp-2, 6.2 μmole
  Percent Apoptotic Sunburn Cells, Non-UVB Treated: 0.03 ± 0.01%
[1]; Table 1, vs acetone group, 6.2 μmole x3 after UVB 30 mJ/cm^2, 6 h
  % Induction: 434%
[1]; Table 3 Exp-1, 6.2 μmole
  % Induction: 445%
[1]; Table 3 Exp-2, 3.1 μmole
  % Induction: 114%
[1]; Table 3 Exp-2, 6.2 μmole
  % Induction: 224%
[1]; Table 4, 1.0% CSB in DERMABASE
  % Induction: 270%
[1]; Table 4, 2.0% CSB in DERMABASE
  % Induction: 395%
[1]; Table 4, 4.0% CSB in DERMABASE
  % Induction: 510%
[1]; Table 4, 6.0% CSB in DERMABASE
  % Induction: 735%
[1]; Table 4, 8.0% CSB in DERMABASE
  % Induction: 775%
[1]; no UVB (Table 3)
  effect on non-UVB-treated cells: unaffected
[2]; week 0, 2% CSB in DERMABASE
  Weight of mouse: 30.5 ± 0.5 g
[2]; week 0, 6% CSB in DERMABASE
  Weight of mouse: 30.4 ± 0.6 g
[2]; week 5, 2% CSB in DERMABASE
  Weight of mouse: 30.3 ± 0.4 g
[2]; week 5, 6% CSB in DERMABASE
  Weight of mouse: 29.9 ± 0.5 g
[2]; week 7, 2% CSB in DERMABASE
  Weight of mouse: 30.6 ± 0.4 g
[2]; week 7, 6% CSB in DERMABASE
  Weight of mouse: 29.8 ± 0.5 g
[2]; week 9, 2% CSB in DERMABASE
  Weight of mouse: 30.6 ± 0.4 g
[2]; week 9, 6% CSB in DERMABASE
  Weight of mouse: 30.0 ± 0.5 g
[2]; week 11, 2% CSB in DERMABASE
  Weight of mouse: 30.7 ± 0.5 g
[2]; week 11, 6% CSB in DERMABASE
  Weight of mouse: 30.2 ± 0.5 g
[3]
  formation of UVB-induced sunburn (skin) lesions: significantly prevented skin lesion formation; also recorded: inhibited the formation of sunburn lesions; also recorded: even more dramatic inhibitory effect
[4]; UVB-treated mice, frozen sections, immunohistochemical
  percent of cyclin B1 positive cells in the epidermis: substantially enhanced
[4]; no UVB
  effect on cyclin B1 positive cells in the absence of UVB: little or no effect
[4]; topical immediately after UVB 30 mJ/cm2, western blot
  level of epidermal cyclin B1 vs UVB alone: increased substantially
[5]
  UVB-induced increase in the level of phospho-Chk2 (Ser387): inhibited
[6]; week 0, 2% CSB in DERMABASE
  No. of large tumors (diameter > 5 mm): 0
  Tumor volume per mouse (all mice) (mm^3): 0 mm^3
  Tumor volume per tumor (mm^3): 0 mm^3
  Tumors per mouse: 0
[6]; week 0, 6% CSB in DERMABASE
  No. of large tumors (diameter > 5 mm): 0
  Tumor volume per mouse (all mice) (mm^3): 0 mm^3
  Tumor volume per tumor (mm^3): 0 mm^3
  Tumors per mouse: 0
[6]; week 5, 2% CSB in DERMABASE
  No. of large tumors (diameter > 5 mm): 0
  Tumor volume per mouse (all mice) (mm^3): 0.1 ± 0.1 mm^3
  Tumor volume per tumor (mm^3): 0.5 ± 0.0 mm^3
  Tumors per mouse: 0.2 ± 0.1
[6]; week 5, 6% CSB in DERMABASE
  No. of large tumors (diameter > 5 mm): 0
  Tumor volume per mouse (all mice) (mm^3): 0.0 ± 0.0 mm^3
  Tumor volume per tumor (mm^3): 0.5 ± 0.0 mm^3
  Tumors per mouse: 0.0 ± 0.0
[6]; week 7, 2% CSB in DERMABASE
  No. of large tumors (diameter > 5 mm): 0
  Tumor volume per mouse (all mice) (mm^3): 0.6 ± 0.4 mm^3
  Tumor volume per tumor (mm^3): 1.5 ± 0.5 mm^3
  Tumors per mouse: 0.4 ± 0.2
[6]; week 7, 6% CSB in DERMABASE
  No. of large tumors (diameter > 5 mm): 0
  Tumor volume per mouse (all mice) (mm^3): 0.1 ± 0.1 mm^3
  Tumor volume per tumor (mm^3): 0.5 ± 0.0 mm^3
  Tumors per mouse: 0.2 ± 0.1
[6]; week 9, 2% CSB in DERMABASE
  No. of large tumors (diameter > 5 mm): 0
  Tumor volume per mouse (all mice) (mm^3): 1.0 ± 0.5 mm^3
  Tumor volume per tumor (mm^3): 1.9 ± 0.9 mm^3
  Tumors per mouse: 0.5 ± 0.2
[6]; week 9, 6% CSB in DERMABASE
  No. of large tumors (diameter > 5 mm): 0
  Tumor volume per mouse (all mice) (mm^3): 0.3 ± 0.2 mm^3
  Tumor volume per tumor (mm^3): 0.9 ± 0.4 mm^3
  Tumors per mouse: 0.3 ± 0.1
[6]; week 11, 2% CSB in DERMABASE
  No. of large tumors (diameter > 5 mm): 0
  Tumor volume per mouse (all mice) (mm^3): 1.8 ± 0.2 mm^3
  Tumor volume per tumor (mm^3): 2.1 ± 0.6 mm^3
  Tumors per mouse: 0.9 ± 0.3
[6]; week 11, 6% CSB in DERMABASE
  No. of large tumors (diameter > 5 mm): 0
  Tumor volume per mouse (all mice) (mm^3): 1.0 ± 0.4 mm^3
  Tumor volume per tumor (mm^3): 2.0 ± 0.5 mm^3
  Tumors per mouse: 0.5 ± 0.2
